Consider 4 substances from US10555961B2 (INDIANA UNIVERSITY RESEARCH AND TECHNOLOGY CORPORATION, priority 2015, dated 2020).

What all share (format): cell-based
One test relates to Bacillus subtilis. Briefly: Bacterial assay, kill zones and growth inhibition zones. To be noted: FIG. 2. Here is the method:
(§1) Bacterial assays were performed using native gentamicin and the C-1, C-1a, C-2, and C-2a congeners of gentamicin.

For a further test, the system named is Klebsiella pneumonia. Described as above. To be noted: FIG. 2. Here is the method:
as §1

Test [1] relates to variant of Klebsiella pneumonia that exhibits multi-drug resistance. As to conditions: multi-drug resistant Klebsiella pneumonia, FIG. 2. The protocol:
as §1

In a further test the test system is UGAC stop codon. Briefly: Stop codon readthrough (FIG. 7). As to conditions: 200 μg mL^−1 for 24 hours, relative to controls.

Experimental for UGAC stop codon: Native gentamicin and various congeners prepared as in Example 1 were tested to determine their effect on stop codon readthrough.
In order to determine the optimal concentrations of the aminoglycosides (tobramycin, amikacin, and gentamicin) to use in the mammalian translation system, increasing amounts of each aminoglycoside were added to a rabbit reticulocyte translation system while expressing the QX(N) (UGAC) construct. The effect of aminoglycosides on total protein synthesis was monitored by comparing the total amount of proteins synthesized in the presence and absence of various aminoglycosides. A range of aminoglycoside concentrations was then determined that allowed a maximal amount of termination suppression without inhibiting total protein synthesis more than two- to threefold. In vitro translation reactions were carried out using the TNT coupled transcription/translation system (Promega, Madison, Wis.). […] The gel was dried and subjected to Phosphorlmager analysis in order to quantitate the amount of truncated and full-length protein species. The percentage of readthrough was then calculated as the amount of full-length protein/(truncated+full-length species)×100%.

With C-1 gentamicin, the “anti-bacterial activity (kill zones and growth inhibition zones)” value (with Bacillus subtilis; in the test with Klebsiella pneumonia; in test [1]) was “demonstrated anti-bacterial activity” each time. For the same substance, the “readthrough of the stop codon UGAC” value with UGAC stop codon is “greater readthrough relative to controls”.
With C-1a gentamicin, the “anti-bacterial activity (kill zones and growth inhibition zones)” value (with Bacillus subtilis; with Klebsiella pneumonia; in test [1]) was “demonstrated anti-bacterial activity” throughout.
In the case of C-2 gentamicin, the “anti-bacterial activity (kill zones and growth inhibition zones)” value (in the test on Bacillus subtilis; in the test with Klebsiella pneumonia; in test [1]) was “demonstrated anti-bacterial activity” each time. In the test on UGAC stop codon, the “readthrough of the stop codon UGAC” value is “greater readthrough relative to controls”.
Take C-2a gentamicin: the “anti-bacterial activity (kill zones and growth inhibition zones)” value (with Bacillus subtilis; with Klebsiella pneumonia; in test [1]) was “demonstrated anti-bacterial activity” throughout.
